Source: the NIST ThermoML archive (doi:10.1021/je050089u)

Assay: excess molar enthalpy (molar enthalpy of mixing); xn = mol fraction of the nth substance listed
Conditions: Fluid (supercritical or subcritical phases)

COC(=O)OC [dimethyl carbonate] + O=C=O
excess molar enthalpy [kcal/mol]
Conditions	303.15 K	308.15 K
5000 kPa, x2 = 0.1537	–	-0.47
5000 kPa, x2 = 0.2239	–	-0.66
5000 kPa, x2 = 0.2901	–	-0.855
5000 kPa, x2 = 0.412	–	-1.2
5000 kPa, x2 = 0.4682	–	-1.36
5000 kPa, x2 = 0.5215	–	-1.49
5000 kPa, x2 = 0.6205	–	-1.73
5000 kPa, x2 = 0.7103	–	-1.93
5000 kPa, x2 = 0.7189	–	-1.93
5000 kPa, x2 = 0.7273	–	-1.88
5000 kPa, x2 = 0.7923	–	-1.4
5000 kPa, x2 = 0.8674	–	-0.854
5000 kPa, x2 = 0.9364	–	-0.391
5000 kPa, x2 = 0.9877	–	-0.00526
5000 kPa, x2 = 0.9939	–	0.0268
5500 kPa, x2 = 0.1547	–	-0.44
5500 kPa, x2 = 0.2917	–	-0.836
5500 kPa, x2 = 0.3544	–	-1.02
5500 kPa, x2 = 0.4138	–	-1.16
5500 kPa, x2 = 0.47	–	-1.31
5500 kPa, x2 = 0.5234	–	-1.45
5500 kPa, x2 = 0.574	–	-1.57
5500 kPa, x2 = 0.6222	–	-1.69
5500 kPa, x2 = 0.6681	–	-1.78
5500 kPa, x2 = 0.7119	–	-1.89
5500 kPa, x2 = 0.7536	–	-1.94
5500 kPa, x2 = 0.7698	–	-1.96
5500 kPa, x2 = 0.7935	–	-1.79
5500 kPa, x2 = 0.8317	–	-1.46
5500 kPa, x2 = 0.8682	–	-1.12
5500 kPa, x2 = 0.9368	–	-0.498
6000 kPa, x2 = 0.1556	–	-0.426
6000 kPa, x2 = 0.2931	–	-0.79
6000 kPa, x2 = 0.4154	–	-1.12
6000 kPa, x2 = 0.4717	–	-1.25
6000 kPa, x2 = 0.5757	–	-1.5
6000 kPa, x2 = 0.6238	–	-1.6
6000 kPa, x2 = 0.7132	–	-1.77
6000 kPa, x2 = 0.7549	–	-1.84
6000 kPa, x2 = 0.7946	–	-1.91
6000 kPa, x2 = 0.7947	-1.9	–
6000 kPa, x2 = 0.8326	–	-1.93
6000 kPa, x2 = 0.8327	-1.93	–
6000 kPa, x2 = 0.869	–	-1.5
6000 kPa, x2 = 0.8691	-1.96	–
6000 kPa, x2 = 0.8901	-1.95	–
6000 kPa, x2 = 0.897	-1.94	–
6000 kPa, x2 = 0.9039	-1.82	–
6000 kPa, x2 = 0.9372	-1.18	-0.715
6000 kPa, x2 = 0.9692	–	-0.276
6000 kPa, x2 = 0.9693	-0.547	–
6500 kPa, x2 = 0.0807	–	-0.219
6500 kPa, x2 = 0.1564	–	-0.404
6500 kPa, x2 = 0.2275	–	-0.582
6500 kPa, x2 = 0.2944	–	-0.751
6500 kPa, x2 = 0.3574	–	-0.928
6500 kPa, x2 = 0.4169	–	-1.05
6500 kPa, x2 = 0.4733	–	-1.2
6500 kPa, x2 = 0.5266	–	-1.31
6500 kPa, x2 = 0.5772	–	-1.41
6500 kPa, x2 = 0.6253	–	-1.52
6500 kPa, x2 = 0.671	–	-1.61
6500 kPa, x2 = 0.7145	–	-1.67
6500 kPa, x2 = 0.756	–	-1.75
6500 kPa, x2 = 0.7956	–	-1.8
6500 kPa, x2 = 0.8335	–	-1.83
6500 kPa, x2 = 0.8697	–	-1.85
6500 kPa, x2 = 0.8837	–	-1.84
6500 kPa, x2 = 0.9044	–	-1.61
6500 kPa, x2 = 0.9376	–	-1.02
6500 kPa, x2 = 0.9694	–	-0.47
7000 kPa, x2 = 0.0812	–	-0.208
7000 kPa, x2 = 0.1572	–	-0.389
7000 kPa, x2 = 0.2285	–	-0.551
7000 kPa, x2 = 0.2956	–	-0.722
7000 kPa, x2 = 0.3587	–	-0.859
7000 kPa, x2 = 0.4184	–	-1
7000 kPa, x2 = 0.4747	–	-1.11
7000 kPa, x2 = 0.528	–	-1.23
7000 kPa, x2 = 0.5786	–	-1.32
7000 kPa, x2 = 0.6266	–	-1.42
7000 kPa, x2 = 0.6723	–	-1.49
7000 kPa, x2 = 0.7157	–	-1.56
7000 kPa, x2 = 0.7571	–	-1.62
7000 kPa, x2 = 0.7966	–	-1.65
7000 kPa, x2 = 0.8343	–	-1.69
7000 kPa, x2 = 0.8703	–	-1.71
7000 kPa, x2 = 0.9049	–	-1.68
7000 kPa, x2 = 0.9249	–	-1.66
7000 kPa, x2 = 0.9443	–	-1.35
7000 kPa, x2 = 0.9507	–	-1.24
7000 kPa, x2 = 0.9697	–	-0.767
7500 kPa, x2 = 0.0816	–	-0.178
7500 kPa, x2 = 0.1579	–	-0.338
7500 kPa, x2 = 0.2294	–	-0.499
7500 kPa, x2 = 0.2967	–	-0.633
7500 kPa, x2 = 0.36	–	-0.771
7500 kPa, x2 = 0.4197	–	-0.885
7500 kPa, x2 = 0.476	–	-0.996
7500 kPa, x2 = 0.5294	–	-1.09
7500 kPa, x2 = 0.5799	–	-1.17
7500 kPa, x2 = 0.6279	–	-1.24
7500 kPa, x2 = 0.6734	–	-1.32
7500 kPa, x2 = 0.7168	–	-1.37
7500 kPa, x2 = 0.7581	–	-1.42
7500 kPa, x2 = 0.7974	–	-1.44
7500 kPa, x2 = 0.835	–	-1.46
7500 kPa, x2 = 0.871	–	-1.47
7500 kPa, x2 = 0.9053	–	-1.48
7500 kPa, x2 = 0.9382	–	-1.42
7500 kPa, x2 = 0.9698	–	-1.24
7500 kPa, x2 = 0.9759	–	-1.02
